Data as given in patent US10259810B2, “N-sulfonylated pyrazolo[3,4-b]pyridin-6-carboxamides and method of use” (AbbVie S.à.r.l., priority 2015, dated 2019).

Columns and labels:
ΔF508-CFTR [1] = target: T1, ΔF508-CFTR (Homo sapiens, UniProt P13569, DEL508-508); assay: CFTR cell surface levels using HRP-tagged ΔF508-CFTR expressing CFBE cells, in the presence of a co-corrector; format: cell-based; details: HRP-tagged ΔF508-CFTR CFBE cells, in the presence of 3 μM co-corrector; for EC50: read-out: EC50
T1 construct: host or cells: CFBE41o-, doxycycline-inducible
How it was run: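 Chemiluminescent read-out of surface HRP (15 min, dark) after PBS washes. Activity is normalized as 100×(sample−DMSO)/(3 μM co-corrector alone−DMSO).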

ΔF508-CFTR [2] = target: T1, ΔF508-CFTR; assay: CFTR cell surface levels using HRP-tagged ΔF508-CFTR expressing CFBE cells, intrinsic corrector capacity; format: cell-based; design: % Activation: concentration or dose not given beside the values; details: HRP-tagged ΔF508-CFTR expressing CFBE41o- cells, compound alone (intrinsic corrector capacity), 20 hours at 33° C.; for EC50: read-out: EC50
From the text: Measuring CFTR Cell Surface Levels Using HRP-Tagged ΔF508-CFTR Expressing CFBE Cells
The HRP-tagged ΔF508-CFTR cell assay measures the expression of CFTR-ΔF508 at the plasma membrane. CFTR-ΔF508 has a folding defect leading to absence of protein at the plasma membrane. This assay is used to evaluate the capacity of compounds to increase the expression of CFTR-ΔF508 at the plasma membrane. The CFTR-ΔF508 is tagged with HRP (horse radish peroxidase enzyme) within the ECL4 (Extracellular loop 4) of CFTR (Phuan, P.-W. et al. Synergy-based small-molecule screen using a human lung epithelial cell line yields ΔF508-CFTR correctors that augment VX-809 maximal efficacy. Mol. Pharmacol. 86, 42-51 (2014)). When HRP-tagged ΔF508-CFTR is present at the plasma membrane, the HRP enzyme activity can be measured. The amount of CFTR-ΔF508 that can be rescued to the plasma membrane is correlated with the amount of functional enzyme that can be measured.
There are several ways to measure the capacity of compounds to rescue CFTR-ΔF508 to the plasma membrane; either compounds are evaluated on their own and the impact on plasma membrane levels is measured or compounds are evaluated in combination with a co-corrector, i.e. a compound that rescues CFTR-ΔF508 to the plasma membrane but rescue can be enhanced by addition of compounds due to a complementary mode of action.
Activity of Compounds for their Intrinsic Corrector Capacity:
For this purpose doxycycline-inducible ΔF508-CFTR-HRP expressing CFBE4lo− cells (obtained from Gergely Lukacs, McGill University) were maintained in MEM (Gibco; 31095) supplemented with 10% fetal bovine serum (Hyclone; SV30160.03) under puromycin (3 μg/mL) and G418 selection (0.2 mg/mL). For compound testing, cells were seeded at 4000 cells/well in white 384-well plates (Greiner; 781080) in 50 μL medium containing 0.5 μg/mL doxycycline and incubated for 68 hours at 37° C., 5% CO2. On day four, […] compounds diluted in PBS were added to the plates at a final DMSO concentration of 0.1%. All compound plates contained negative controls (DMSO) and positive controls ([…] corrector, 3-[(2R,4R)-4-({[1-(2,2-difluoro-1,3-benzodioxol-5-yl)cyclopropyl]carbonyl}amino)-7-methoxy-3,4-dihydro-2H-chromen-2-yl]benzoic acid). Cell plates were incubated at 33° C., 5% CO2 for 20 hours. On day five, the cells were washed five times with phosphate-buffered saline, and HRP activity was assayed by the addition of 50 μL/well of HRP substrate (SuperSignal™ West Pico Chemiluminescent Substrate, Thermo Scientific; 34080). After incubation for 15 minutes in the dark, chemiluminescence was measured using a plate reader (EnVision®, Perkin Elmer). Raw data were normalized to percentage activity values using the equation: 100×(Sample−Negative control)/(Positive control−Negative Control).

T1 sequence (P13569 with tags, fused parts or gaps DEL508-508): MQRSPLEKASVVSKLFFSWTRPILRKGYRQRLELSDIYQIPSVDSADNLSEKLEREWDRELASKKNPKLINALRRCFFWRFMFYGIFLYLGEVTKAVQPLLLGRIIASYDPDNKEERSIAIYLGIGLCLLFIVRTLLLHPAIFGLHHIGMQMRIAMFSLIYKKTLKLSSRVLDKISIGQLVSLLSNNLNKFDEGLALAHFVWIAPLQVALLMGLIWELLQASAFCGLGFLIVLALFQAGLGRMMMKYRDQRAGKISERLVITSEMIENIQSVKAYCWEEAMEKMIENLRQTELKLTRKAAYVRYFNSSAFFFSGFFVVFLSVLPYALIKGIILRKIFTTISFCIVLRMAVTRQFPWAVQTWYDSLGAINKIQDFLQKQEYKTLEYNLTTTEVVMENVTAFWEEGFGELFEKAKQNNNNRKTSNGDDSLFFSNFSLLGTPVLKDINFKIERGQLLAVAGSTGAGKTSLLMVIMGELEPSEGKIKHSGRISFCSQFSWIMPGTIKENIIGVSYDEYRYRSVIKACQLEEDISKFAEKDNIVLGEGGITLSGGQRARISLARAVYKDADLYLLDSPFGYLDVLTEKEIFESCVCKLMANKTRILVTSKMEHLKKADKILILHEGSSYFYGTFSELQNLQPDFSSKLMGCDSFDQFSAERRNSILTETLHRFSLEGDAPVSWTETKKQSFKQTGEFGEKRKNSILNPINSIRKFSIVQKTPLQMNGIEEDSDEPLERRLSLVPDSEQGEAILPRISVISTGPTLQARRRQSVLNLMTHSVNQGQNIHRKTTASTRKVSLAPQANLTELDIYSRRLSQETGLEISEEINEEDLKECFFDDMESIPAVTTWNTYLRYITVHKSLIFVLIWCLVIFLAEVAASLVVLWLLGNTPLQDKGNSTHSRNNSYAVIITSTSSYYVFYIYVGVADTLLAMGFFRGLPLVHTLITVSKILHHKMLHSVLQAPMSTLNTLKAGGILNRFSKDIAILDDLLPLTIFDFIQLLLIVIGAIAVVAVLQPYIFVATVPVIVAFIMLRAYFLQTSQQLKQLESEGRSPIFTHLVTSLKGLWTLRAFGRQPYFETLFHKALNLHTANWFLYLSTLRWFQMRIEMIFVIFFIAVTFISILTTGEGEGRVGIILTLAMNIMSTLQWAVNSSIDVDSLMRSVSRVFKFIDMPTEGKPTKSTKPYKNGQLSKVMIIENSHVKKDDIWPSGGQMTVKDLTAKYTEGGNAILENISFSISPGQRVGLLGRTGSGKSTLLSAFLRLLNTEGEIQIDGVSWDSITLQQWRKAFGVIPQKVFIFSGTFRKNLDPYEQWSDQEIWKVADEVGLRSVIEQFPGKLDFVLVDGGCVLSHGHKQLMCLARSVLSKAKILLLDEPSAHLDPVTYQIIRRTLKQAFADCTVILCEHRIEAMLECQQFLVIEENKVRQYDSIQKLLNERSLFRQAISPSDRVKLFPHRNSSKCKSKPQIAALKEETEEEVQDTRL

`CC(C)c1nn(-c2cccc(N(C)C)c2)c2nc(C(=O)NS(C)(=O)=O)cc(-c3ccc(N(C)C4CCOCC4)nc3)c12` [Compound 89, 1-[3-(dimethylamino)phenyl]-N-(methanesulfonyl)-4-{6-[methyl(oxan-4-yl)amino]pyridin-3-yl}-3-(propan-2-yl)-1H-pyrazolo[3,4-b]pyridine-6-carboxamide] was tested, and the “% Activation” value (ΔF508-CFTR [1]) was 609.48%, the EC50 (ΔF508-CFTR [1]) was 396 nM and the “% Activation” value (ΔF508-CFTR [2]) was 422.78%. The EC50 (ΔF508-CFTR [2]) was 646 nM.

In the case of `CS(=O)(=O)NC(=O)c1cc(N2CCC(N3CCCC(C(F)(F)F)C3)CC2)c2c(C3CCC3)nn(-c3ccc(F)cc3)c2n1` (centres unmarked) [Compound 586, 3-cyclobutyl-1-(4-fluorophenyl)-N-(methanesulfonyl)-4-[3-(trifluoromethyl)[1,4'-bipiperidin]-1'-yl]-1H-pyrazolo[3,4-b]pyridine-6-carboxamide], the “% Activation” value (ΔF508-CFTR [1]) is reported as 618.65%, the EC50 (ΔF508-CFTR [1]) is reported as 37.1 nM and the “% Activation” value (ΔF508-CFTR [2]) is reported as 331.67%. The EC50 (ΔF508-CFTR [2]) was 52.4 nM.

For `Cc1nn(C2CCCCC2)c2nc(C(=O)NS(C)(=O)=O)cc(-c3cnc(N(C)C)nc3)c12` [Compound 49, 1-cyclohexyl-4-[2-(dimethylamino)pyrimidin-5-yl]-N-(methanesulfonyl)-3-methyl-1H-pyrazolo[3,4-b]pyridine-6-carboxamide], the “% Activation” value (ΔF508-CFTR [1]) was 338%, the EC50 (ΔF508-CFTR [1]) was 2000 nM and the “% Activation” value (ΔF508-CFTR [2]) was 115.3%. For the same molecule, the EC50 (ΔF508-CFTR [2]) was 2570 nM.

For `CNS(=O)(=O)NC(=O)c1cc(N2CCC(N3CCC(F)CC3)CC2)c2c(C3CCC3)nn(-c3ccc(F)cc3)c2n1` [Compound 650, 3-cyclobutyl-4-(4-fluoro[1,4'-bipiperidin]-1'-yl)-1-(4-fluorophenyl)-N-(methylsulfamoyl)-1H-pyrazolo[3,4-b]pyridine-6-carboxamide], the “% Activation” value (ΔF508-CFTR [1]) was 592.45%, the EC50 (ΔF508-CFTR [1]) was 96.4 nM and the “% Activation” value (ΔF508-CFTR [2]) was 385.4%. The EC50 (ΔF508-CFTR [2]) was 115 nM.

In the case of `COCC1CCN(c2cc(C(=O)NS(=O)(=O)CCl)nc3c2c(C2CCC2)nn3-c2ccccc2)CC1` [AC07], the “% Activation” value (ΔF508-CFTR [1]) is reported as 466.9%, the EC50 (ΔF508-CFTR [1]) is reported as 76.6 nM and the “% Activation” value (ΔF508-CFTR [2]) is reported as 268.5%. For the same molecule, the EC50 (ΔF508-CFTR [2]) was 139 nM.

`CN(C)S(=O)(=O)NC(=O)c1cc(-c2ccc(N3CCN(C4CC4)CC3)nc2)c2c(C3CCC3)nn(C3CCCCC3)c2n1` [Compound 536, 3-cyclobutyl-1-cyclohexyl-4-[6-(4-cyclopropylpiperazin-1-yl)pyridin-3-yl]-N-(dimethylsulfamoyl)-1H-pyrazolo[3,4-b]pyridine-6-carboxamide] was tested, and the “% Activation” value (ΔF508-CFTR [1]) was 341.15%, the EC50 (ΔF508-CFTR [1]) was 280 nM and the “% Activation” value (ΔF508-CFTR [2]) was 125.1%. For the same molecule, the EC50 (ΔF508-CFTR [2]) was 225 nM.

`Cc1cccc(-n2nc(C(C)C)c3c(N4CCC5(C4)CC5(F)F)cc(C(=O)NS(C)(=O)=O)nc32)c1` (centres unmarked) [Compound 149, 4-(1,1-difluoro-5-azaspiro[2.4]heptan-5-yl)-N-(methanesulfonyl)-1-(3-methylphenyl)-3-(propan-2-yl)-1H-pyrazolo[3,4-b]pyridine-6-carboxamide] was tested, and the “% Activation” value (ΔF508-CFTR [1]) was 299.95%, the EC50 (ΔF508-CFTR [1]) was 259 nM and the “% Activation” value (ΔF508-CFTR [2]) was 122.3%. For the same molecule, the EC50 (ΔF508-CFTR [2]) was 386 nM.

`Cc1nn(-c2ccc(F)cc2F)c2nc(C(=O)NS(C)(=O)=O)cc(-c3ccc(N4CCOCC4)nc3)c12` [Compound 60, 1-(2,4-difluorophenyl)-N-(methanesulfonyl)-3-methyl-4-[6-(morpholin-4-yl)pyridin-3-yl]-1H-pyrazolo[3,4-b]pyridine-6-carboxamide] was tested, and the “% Activation” value (ΔF508-CFTR [1]) was 323.63%, the EC50 (ΔF508-CFTR [1]) was 351 nM and the “% Activation” value (ΔF508-CFTR [2]) was 160.43%. The EC50 (ΔF508-CFTR [2]) was 394 nM.

`COCCN(C)c1ccc(-c2cc(C(=O)NS(C)(=O)=O)nc3c2c(C(C)C)nn3-c2cccc(N(C)C)c2)cn1` [Compound 84, 1-[3-(dimethylamino)phenyl]-N-(methanesulfonyl)-4-{6-[(2-methoxyethyl)(methyl)amino]pyridin-3-yl}-3-(propan-2-yl)-1H-pyrazolo[3,4-b]pyridine-6-carboxamide] was tested, and the “% Activation” value (ΔF508-CFTR [1]) was 468.2%, the EC50 (ΔF508-CFTR [1]) was 408 nM and the “% Activation” value (ΔF508-CFTR [2]) was 311.7%. The EC50 (ΔF508-CFTR [2]) was 660 nM.

`O=C(NS(=O)(=O)N1CCCC1)c1cc(N2CCC(N3CCOCC3)CC2)c2c(C3CCC3)nn(-c3ccc(F)cc3)c2n1` [Compound 485, 3-cyclobutyl-1-(4-fluorophenyl)-4-[4-(morpholin-4-yl)piperidin-1-yl]-N-(pyrrolidine-1-sulfonyl)-1H-pyrazolo[3,4-b]pyridine-6-carboxamide] was tested, and the “% Activation” value (ΔF508-CFTR [1]) was 399.1%, the EC50 (ΔF508-CFTR [1]) was 90.2 nM and the “% Activation” value (ΔF508-CFTR [2]) was 218.55%. The EC50 (ΔF508-CFTR [2]) was 155 nM.

In the case of `CC(C)c1nn(C2CCCC2)c2nc(C(=O)NS(C)(=O)=O)cc(-c3ccc(N(C)C)nc3)c12` [Compound 55, 1-cyclopentyl-4-[6-(dimethylamino)pyridin-3-yl]-N-(methanesulfonyl)-3-(propan-2-yl)-1H-pyrazolo[3,4-b]pyridine-6-carboxamide], the “% Activation” value (ΔF508-CFTR [1]) is reported as 341.65%, the EC50 (ΔF508-CFTR [1]) is reported as 1050 nM and the “% Activation” value (ΔF508-CFTR [2]) is reported as 126.75%. The EC50 (ΔF508-CFTR [2]) was 1220 nM.

For `CS(=O)(=O)NC(=O)c1cc(N2CCC(N3CCOCC3)CC2)c2c(C3CCC3)nn(-c3ccc(C(F)(F)F)cc3)c2n1` [Compound 510, 3-cyclobutyl-N-(methanesulfonyl)-4-[4-(morpholin-4-yl)piperidin-1-yl]-1-[4-(trifluoromethyl)phenyl]-1H-pyrazolo[3,4-b]pyridine-6-carboxamide], the “% Activation” value (ΔF508-CFTR [1]) was 428.8%, the EC50 (ΔF508-CFTR [1]) was 171 nM and the “% Activation” value (ΔF508-CFTR [2]) was 234.9%. It also gave an EC50 (ΔF508-CFTR [2]) of 298 nM.

With `CN(C)S(=O)(=O)NC(=O)c1cc(OCC2CCN(C3CCOCC3)CC2)c2c(C3CCC3)nn(-c3ccc(F)cc3)c2n1` [Compound 619, 3-cyclobutyl-N-(dimethylsulfamoyl)-1-(4-fluorophenyl)-4-{[1-(oxan-4-yl)piperidin-4-yl]methoxy}-1H-pyrazolo[3,4-b]pyridine-6-carboxamide] the “% Activation” value (ΔF508-CFTR [1]) was 277.25%, the EC50 (ΔF508-CFTR [1]) was 375 nM and the “% Activation” value (ΔF508-CFTR [2]) was 102.8%. The EC50 (ΔF508-CFTR [2]) was 680 nM.

With `CCCN(C)S(=O)(=O)NC(=O)c1cc(N2CCC(N3CCN(C4CC4)CC3)CC2)c2c(C3CCC3)nn(-c3ccccc3)c2n1` [Compound 554, 3-cyclobutyl-4-[4-(4-cyclopropylpiperazin-1-yl)piperidin-1-yl]-N-[methyl(propyl)sulfamoyl]-1-phenyl-1H-pyrazolo[3,4-b]pyridine-6-carboxamide] the “% Activation” value (ΔF508-CFTR [1]) was 481%, the EC50 (ΔF508-CFTR [1]) was 56.9 nM and the “% Activation” value (ΔF508-CFTR [2]) was 269.45%. For the same molecule, the EC50 (ΔF508-CFTR [2]) was 108 nM.

`CS(=O)(=O)NC(=O)c1cc(CN2CCC(N3CCOCC3)CC2)c2c(C3CCC3)nn(-c3ccc(F)cc3)c2n1` [Compound 596, 3-cyclobutyl-1-(4-fluorophenyl)-N-(methanesulfonyl)-4-{[4-(morpholin-4-yl)piperidin-1-yl]methyl}-1H-pyrazolo[3,4-b]pyridine-6-carboxamide] was tested, and the “% Activation” value (ΔF508-CFTR [1]) was 304.8%, the EC50 (ΔF508-CFTR [1]) was 1910 nM and the “% Activation” value (ΔF508-CFTR [2]) was 104.3%. It also gave an EC50 (ΔF508-CFTR [2]) of 1380 nM.

`CC(C)c1nn(-c2ccc(F)cc2F)c2nc(C(=O)NS(C)(=O)=O)cc(-c3ccc(N4CCC(C#N)CC4)nc3)c12` [Compound 140, 4-[6-(4-cyanopiperidin-1-yl)pyridin-3-yl]-1-(2,4-difluorophenyl)-N-(methanesulfonyl)-3-(propan-2-yl)-1H-pyrazolo[3,4-b]pyridine-6-carboxamide] was tested, and the “% Activation” value (ΔF508-CFTR [1]) was 377.9%, the EC50 (ΔF508-CFTR [1]) was 381 nM and the “% Activation” value (ΔF508-CFTR [2]) was 210.3%. It also gave an EC50 (ΔF508-CFTR [2]) of 734 nM.

With `CCCN(C)S(=O)(=O)NC(=O)c1cc(N2CCC(N3CCOCC3)CC2)c2c(C3CCC3)nn(-c3ccccc3)c2n1` [Compound 432, 3-cyclobutyl-N-[methyl(propyl)sulfamoyl]-4-[4-(morpholin-4-yl)piperidin-1-yl]-1-phenyl-1H-pyrazolo[3,4-b]pyridine-6-carboxamide] the “% Activation” value (ΔF508-CFTR [1]) was 514.83%, the EC50 (ΔF508-CFTR [1]) was 65.9 nM and the “% Activation” value (ΔF508-CFTR [2]) was 243.6%. For the same molecule, the EC50 (ΔF508-CFTR [2]) was 119 nM.
